# Results: patent US9169260B2 (MERCK SHARP & DOHME CORP., priority 2011, dated 2015)
# Molecular target: GST tagged IRAK-4 (Homo sapiens (Human), UniProt Q9NWZ3)
# Assay: IRAK-4 Kinase Assay (IMAP fluorescence polarization)
# Type: biochemical
# Settings: 100 μM ATP, 30 minutes at 25° C.
# Method: The kinase activity of IRAK-4 is determined by its ability to catalyze the phosphorylation of a fluorescent polypeptide substrate. The extent of phosphorylation is measured using the IMAP technology (Molecular Devices) where the phosphorylated fluorescent substrate binds to the large M(III)-based nanoparticles which reduces the rotational speed of the substrate and thus increases its fluorescent polarization (FP).
# 20 μl reaction mixture contains 10 mM TriHCl, pH 7.2, 0.5 nM GST tagged IRAK-4 (SignalChem), 100 nM fluorescent peptide substrate (RP7030, Molecular Devices), 100 μM ATP, 1 mM DTT, 1 mM MgCl2, and 0.01% Tween 20. The reaction is initiated by the addition of ATP. After incubation for 30 minutes at 25° C., 60 μl of Progressive IMAP Reagent (Molecular Devices) is added to stop the reaction. Change in RP7030's FP is determined by a FP reader (Analyst HT, LH, BioSystems).
# Chain of GST tagged IRAK-4 (Q9NWZ3 whole entry): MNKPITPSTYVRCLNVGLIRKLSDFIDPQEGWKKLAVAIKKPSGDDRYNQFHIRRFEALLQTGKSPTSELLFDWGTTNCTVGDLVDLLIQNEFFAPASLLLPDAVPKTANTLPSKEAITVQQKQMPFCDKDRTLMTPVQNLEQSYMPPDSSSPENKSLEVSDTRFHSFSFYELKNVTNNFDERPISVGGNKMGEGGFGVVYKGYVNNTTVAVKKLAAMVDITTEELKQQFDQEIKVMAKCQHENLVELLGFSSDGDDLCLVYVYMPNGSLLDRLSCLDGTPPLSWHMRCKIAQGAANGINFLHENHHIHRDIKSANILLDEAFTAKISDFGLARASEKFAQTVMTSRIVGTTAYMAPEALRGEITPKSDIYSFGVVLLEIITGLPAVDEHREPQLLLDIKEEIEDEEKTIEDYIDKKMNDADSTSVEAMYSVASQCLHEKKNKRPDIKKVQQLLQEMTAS
row,IC50 [µM],SMILES
1,< 0.1,"COc1ccc(-n2nc(C3CCN(S(=O)(=O)C4CC4)CC3)cc2NC(=O)c2cnn3cccnc23)c(F)c1 [Example 63, N-(3-(1-(cyclopropylsulfonyl)piperidin-4-yl)-1-(2-fluoro-4-methoxyphenyl)-1H-pyrazol-5-yl)pyrazolo[1,5-a]pyrimidine-3-carboxamide]"
2,< 0.1,"COc1ccc(-n2nc(C3CCN(S(C)(=O)=O)CC3)cc2NC(=O)c2cnn3cccnc23)c(F)c1 [Example 64, N-(1-(2-fluoro-4-methoxyphenyl)-3-(1-(methylsulfonyl)piperidin-4-yl)-1H-pyrazol-5-yl)pyrazolo[1,5-a]pyrimidine-3-carboxamide]"
3,< 0.1,"O=C(Nc1cc(C2CCNCC2)nn1-c1ccc(C2CC2)cc1F)c1cnn2cccnc12 [Example 72, N-(1-(4-cyclopropyl-2-fluorophenyl)-3-(piperidin-4-yl)-1H-pyrazol-5-yl)pyrazolo[1,5-a]pyrimidine-3-carboxamide]"
4,< 0.1,"CS(=O)(=O)N1CCC(c2cc(NC(=O)c3cnn4cccnc34)n(-c3ccc(C4CC4)cc3F)n2)CC1 [Example 73, N-(1-(4-cyclopropyl-2-fluorophenyl)-3-(1-(methylsulfonyl)piperidin-4-yl)-1H-pyrazol-5-yl)pyrazolo[1,5-a]pyrimidine-3-carboxamide]"
5,< 0.1,"CC(C)N1CCC(c2cc(NC(=O)c3cnn4cccnc34)n(-c3ccc(C4CC4)cc3F)n2)CC1 [Example 74, N-(1-(4-cyclopropyl-2-fluorophenyl)-3-(1-isopropylpiperidin-4-yl)-1H-pyrazol-5-yl)pyrazolo[1,5-a]pyrimidine-3-carboxamide]"
6,< 0.1,"O=C(Nc1cc(C2CCN(C3CCC3)CC2)nn1-c1ccc(C2CC2)cc1F)c1cnn2cccnc12 [Example 75, N-(3-(1-cyclobutylpiperidin-4-yl)-1-(4-cyclopropyl-2-fluorophenyl)-1H-pyrazol-5-yl)pyrazolo[1,5-a]pyrimidine-3-carboxamide]"
7,< 0.1,"O=C(Nc1cc(C2CCNCC2)nn1-c1c(F)cc(C2CC2)cc1F)c1cnn2cccnc12 [Example 77, N-(1-(4-cyclopropyl-2,6-difluorophenyl)-3-(piperidin-4-yl)-1H-pyrazol-5-yl)pyrazolo[1,5-a]pyrimidine-3-carboxamide]"
8,< 0.1,"O=C(Nc1cc(C2CNC2)nn1-c1ccc(C2CC2)cc1F)c1cnn2cccnc12 [Example 87, N-(3-(azetidin-3-yl)-1-(4-cyclopropyl-2-fluorophenyl)-1H-pyrazol-5-yl)pyrazolo[1,5-a]pyrimidine-3-carboxamide]"
9,< 0.1,"CC(C)N1CC(c2cc(NC(=O)c3cnn4cccnc34)n(-c3ccc(C4CC4)cc3F)n2)C1 [Example 88, N-(1-(4-cyclopropyl-2-fluorophenyl)-3-(1-isopropylazetidin-3-yl)-1H-pyrazol-5-yl)pyrazolo[1,5-a]pyrimidine-3-carboxamide]"
10,< 0.1,"O=C(Nc1cc(C2CN(C3CCC3)C2)nn1-c1ccc(C2CC2)cc1F)c1cnn2cccnc12 [Example 89, N-(3-(1-cyclobutylazetidin-3-yl)-1-(4-cyclopropyl-2-fluorophenyl)-1H-pyrazol-5-yl)pyrazolo[1,5-a]pyrimidine-3-carboxamide]"

# Same assay, conditions: 100 μM ATP, 30 minutes at 25° C.; μM
row,SMILES,IC50 [µM]
1,"Cc1ccc(-n2nc(C3CCN(C(C)C)CC3)cc2NC(=O)c2cnn3cccnc23)c(Cl)c1 [Example 66, N-(1-(2-chloro-4-methylphenyl)-3-(1-isopropylpiperidin-4-yl)-1H-pyrazol-5-yl)pyrazolo[1,5-a]pyrimidine-3-carboxamide]",< 1
2,"O=C(Nc1cc(C2CCNCC2)nn1-c1cc(F)cc(F)c1)c1cnn2cccnc12 [Example 67, N-(1-(3,5-difluorophenyl)-3-(piperidin-4-yl)-1H-pyrazol-5-yl)pyrazolo[1,5-a]pyrimidine-3-carboxamide]",> 1
3,"Cc1ccc(-n2nc(C3COCCN3)cc2NC(=O)c2cnn3cccnc23)cc1 (stereo not shown) [Example 79, N-(3-(morpholin-3-yl)-1-(p-tolyl)-1H-pyrazol-5-yl)pyrazolo[1,5-a]pyrimidine-3-carboxamide]",< 1
4,"Cc1ccc(-n2nc(C3CCNC3)cc2NC(=O)c2cnn3cccnc23)cc1 (stereo not shown) [Example 80, N-(3-(pyrrolidin-3-yl)-1-(p-tolyl)-1H-pyrazol-5-yl)pyrazolo[1,5-a]pyrimidine-3-carboxamide]",< 1
5,"Cc1ccc(-n2nc(C3CNC3)cc2NC(=O)c2cnn3cccnc23)cc1 [Example 82, N-(3-(azetidin-3-yl)-1-(p-tolyl)-1H-pyrazol-5-yl)pyrazolo[1,5-a]pyrimidine-3-carboxamide]",> 1
6,"Cc1ccc(-n2nc(C3CN(S(C)(=O)=O)C3)cc2NC(=O)c2cnn3cccnc23)cc1 [Example 83, N-(3-(1-(methylsulfonyl)azetidin-3-yl)-1-(p-tolyl)-1H-pyrazol-5-yl)pyrazolo[1,5-a]pyrimidine-3-carboxamide]",< 1
7,"Cc1ccc(-n2nc(C3CN(S(=O)(=O)C4CC4)C3)cc2NC(=O)c2cnn3cccnc23)cc1 [Example 84, N-(3-(1-(cyclopropylsulfonyl)azetidin-3-yl)-1-(p-tolyl)-1H-pyrazol-5-yl)pyrazolo[1,5-a]pyrimidine-3-carboxamide]",< 1
8,"COCCS(=O)(=O)N1CC(c2cc(NC(=O)c3cnn4cccnc34)n(-c3ccc(C)cc3)n2)C1 [Example 86, N-(3-(1-((2-methoxyethyl)sulfonyl)azetidin-3-yl)-1-(p-tolyl)-1H-pyrazol-5-yl)pyrazolo[1,5-a]pyrimidine-3-carboxamide]",< 1
9,"CC(=O)c1ccc(-n2nc(C3CCN(S(C)(=O)=O)CC3)cc2NC(=O)c2cnn3cccnc23)cc1 [Example 90, N-(1-(4-acetylphenyl)-3-(1-(methylsulfonyl)piperidin-4-yl)-1H-pyrazol-5-yl)pyrazolo[1,5-a]pyrimidine-3-carboxamide]",< 1
10,"Cc1ccc(-n2nc(C3(C)CCNCC3)cc2NC(=O)c2cnn3cccnc23)cc1 [Example 91, N-(3-(4-methylpiperidin-4-yl)-1-(p-tolyl)-1H-pyrazol-5-yl)pyrazolo[1,5-a]pyrimidine-3-carboxamide]",< 1
11,"Cc1ccc(-n2nc(C3(C)CCN(S(C)(=O)=O)CC3)cc2NC(=O)c2cnn3cccnc23)cc1 [Example 92, N-(3-(4-methyl-1-(methylsulfonyl)piperidin-4-yl)-1-(p-tolyl)-1H-pyrazol-5-yl)pyrazolo[1,5-a]pyrimidine-3-carboxamide]",> 1
12,"COC(=O)C1CCC(c2cc(NC(=O)c3cnn4cccnc34)n(-c3ccc(C)cc3)n2)CC1 (stereo not shown) [Example 93, methyl 4-(5-(pyrazolo[1,5-a]pyrimidine-3-carboxamido)-1-(p-tolyl)-1H-pyrazol-3-yl)cyclohexanecarboxylate]",> 1
13,"Cc1ccc(-n2nc(C3CCC(C(=O)O)CC3)cc2NC(=O)c2cnn3cccnc23)cc1 (stereo not shown) [Example 94, 4-(5-(pyrazolo[1,5-a]pyrimidine-3-carboxamido)-1-(p-tolyl)-1H-pyrazol-3-yl)cyclohexanecarboxylic acid]",> 1
14,"Cc1ccc(-n2nc(C3CCC(C(N)=O)CC3)cc2NC(=O)c2cnn3cccnc23)cc1 (stereo not shown) [Example 95, N-(3-(4-carbamoylcyclohexyl)-1-(p-tolyl)-1H-pyrazol-5-yl)pyrazolo[1,5-a]pyrimidine-3-carboxamide]",< 1

# The remaining lines, values ahead:
row,IC50 [µM],SMILES
1,< 1,"Cc1ccc(-n2nc(C3CCNCC3)cc2NC(=O)c2cnn3cccnc23)c(Cl)c1 [Example 65, N-(1-(2-chloro-4-methylphenyl)-3-(piperidin-4-yl)-1H-pyrazol-5-yl)pyrazolo[1,5-a]pyrimidine-3-carboxamide]"
2,> 1,"Cc1cc(F)ccc1-n1nc(C2CCNCC2)cc1NC(=O)c1cnn2cccnc12 [Example 68, N-(1-(4-fluoro-2-methylphenyl)-3-(piperidin-4-yl)-1H-pyrazol-5-yl)pyrazolo[1,5-a]pyrimidine-3-carboxamide]"
3,< 1,"Cc1cc(F)ccc1-n1nc(C2CCN(C(C)C)CC2)cc1NC(=O)c1cnn2cccnc12 [Example 69, N-(1-(4-fluoro-2-methylphenyl)-3-(1-isopropylpiperidin-4-yl)-1H-pyrazol-5-yl)pyrazolo[1,5-a]pyrimidine-3-carboxamide]"
4,< 1,"O=C(Nc1cc(C2CCNCC2)nn1-c1ccc(Br)cc1F)c1cnn2cccnc12 [Example 70, N-(1-(4-bromo-2-fluorophenyl)-3-(piperidin-4-yl)-1H-pyrazol-5-yl)pyrazolo[1,5-a]pyrimidine-3-carboxamide]"
5,< 1,"CS(=O)(=O)N1CCC(c2cc(NC(=O)c3cnn4cccnc34)n(-c3ccc(Br)cc3F)n2)CC1 [Example 71, N-(1-(4-bromo-2-fluorophenyl)-3-(1-(methylsulfonyl)piperidin-4-yl)-1H-pyrazol-5-yl)pyrazolo[1,5-a]pyrimidine-3-carboxamide]"
6,< 1,"O=C(Nc1cc(C2CCN(CC(F)(F)F)CC2)nn1-c1ccc(C2CC2)cc1F)c1cnn2cccnc12 [Example 76, N-(1-(4-cyclopropyl-2-fluorophenyl)-3-(1-(2,2,2-trifluoroethyl)piperidin-4-yl)-1H-pyrazol-5-yl)pyrazolo[1,5-a]pyrimidine-3-carboxamide]"
7,< 1,"Cc1ccc(-n2nc(C3CN(S(=O)(=O)C4CCCC4)C3)cc2NC(=O)c2cnn3cccnc23)cc1 [Example 85, N-(3-(1-(cyclopentylsulfonyl)azetidin-3-yl)-1-(p-tolyl)-1H-pyrazol-5-yl)pyrazolo[1,5-a]pyrimidine-3-carboxamide]"
